{
  "source": "ChEMBL document CHEMBL4406882",
  "about": "“The plant-derived chalcone Xanthoangelol targets the membrane of Gram-positive bacteria” (Bioorg Med Chem, 2019)",
  "key": {"Bacillus subtilis [1]": {"test_system": "Bacillus subtilis", "assay": "Induction of FabG protein expression in Bacillus subtilis 168 at 2.3 uM incubated for 15 mins by 35S-methionine pulse labeling based 2D-PAGE analysis", "assay_type": "functional, organism-based"}, "Bacillus subtilis [2]": {"test_system": "Bacillus subtilis", "assay": "Induction of GroES protein expression in Bacillus subtilis 168 at 2.3 uM incubated for 15 mins by 35S-methionine pulse labeling based 2D-PAGE analysis", "assay_type": "functional, organism-based"}, "Staphylococcus aureus [3]": {"test_system": "Staphylococcus aureus", "assay": "Antibacterial activity against methicillin-resistant Staphylococcus aureus ATCC 700699 by broth micro dilution method", "assay_type": "functional"}, "THP-1": {"test_system": "THP-1", "assay": "(§1) Cytotoxicity against human THP1 cells assessed as reduction in cell viability incubated for 48 hrs by resazurin reagent based assay", "settings": "Homo sapiens, THP-1, 48 h"}, "[4]": {"assay": "as §1", "set-up": "species or system THP-1", "settings": "human, THP1 cells"}, "Bacillus subtilis [5]": {"test_system": "Bacillus subtilis", "assay": "Induction of YfmJ protein expression in Bacillus subtilis 168 at 2.3 uM incubated for 15 mins by 35S-methionine pulse labeling based 2D-PAGE analysis", "assay_type": "functional, organism-based"}, "Bacillus subtilis [6]": {"test_system": "Bacillus subtilis", "assay": "Induction of YwfI protein expression in Bacillus subtilis 168 at 2.3 uM incubated for 15 mins by 35S-methionine pulse labeling based 2D-PAGE analysis", "assay_type": "functional, organism-based"}, "Bacillus subtilis [7]": {"test_system": "Bacillus subtilis", "assay": "Induction of PspA protein expression in Bacillus subtilis 168 at 2.3 uM incubated for 15 mins by 35S-methionine pulse labeling based 2D-PAGE analysis", "assay_type": "functional, organism-based"}, "Bacillus subtilis [8]": {"test_system": "Bacillus subtilis", "assay": "Induction of YkgB protein expression in Bacillus subtilis 168 at 2.3 uM incubated for 15 mins by 35S-methionine pulse labeling based 2D-PAGE analysis", "assay_type": "functional, organism-based"}, "[9]": {"assay": "Selectivity index, ratio of IC50 for human THP1 cells to MIC90 for methicillin-resistant Staphylococcus aureus ATCC 700699", "assay_type": "toxicity", "settings": "read-out: Selectivity Index"}, "Bacillus subtilis [10]": {"test_system": "Bacillus subtilis", "assay": "Induction of YhfK protein expression in Bacillus subtilis 168 at 2.3 uM incubated for 15 mins by 35S-methionine pulse labeling based 2D-PAGE analysis", "assay_type": "functional, organism-based"}, "Staphylococcus aureus [11]": {"test_system": "Staphylococcus aureus", "assay": "Antibacterial activity against Staphylococcus aureus ATCC 25923 by broth micro dilution method", "assay_type": "functional"}, "Bacillus subtilis [12]": {"test_system": "Bacillus subtilis", "assay": "Induction of LiaH.2 protein expression in Bacillus subtilis 168 at 2.3 uM incubated for 15 mins by 35S-methionine pulse labeling based 2D-PAGE analysis", "assay_type": "functional, organism-based"}, "Staphylococcus aureus [13]": {"test_system": "Staphylococcus aureus", "assay": "Induction of membrane integrity impairment in methicillin-resistant Staphylococcus aureus ATCC 700699 at 0.5 to 4 times MIC measured for 30 mins by DiOC2(3) probe based fluorescence assay", "assay_type": "functional, organism-based"}, "[14]": {"assay": "Selectivity index, ratio of IC50 for human CLS54 cells to MIC90 for methicillin-resistant Staphylococcus aureus ATCC 700699", "assay_type": "toxicity", "settings": "read-out: Selectivity Index"}, "Bacillus subtilis [15]": {"test_system": "Bacillus subtilis", "assay": "Induction of SerA protein expression in Bacillus subtilis 168 at 2.3 uM incubated for 15 mins by 35S-methionine pulse labeling based 2D-PAGE analysis", "assay_type": "functional, organism-based"}, "Enterococcus faecalis [16]": {"test_system": "Enterococcus faecalis", "assay": "Antibacterial activity against Enterococcus faecalis ATCC 35667 by broth micro dilution method", "assay_type": "functional"}, "Bacillus subtilis [17]": {"test_system": "Bacillus subtilis", "assay": "Induction of ClpP protein expression in Bacillus subtilis 168 at 2.3 uM incubated for 15 mins by 35S-methionine pulse labeling based 2D-PAGE analysis", "assay_type": "functional, organism-based"}, "Bacillus subtilis [18]": {"test_system": "Bacillus subtilis", "assay": "Induction of Cah protein expression in Bacillus subtilis 168 at 2.3 uM incubated for 15 mins by 35S-methionine pulse labeling based 2D-PAGE analysis", "assay_type": "functional, organism-based"}, "Bacillus subtilis [19]": {"test_system": "Bacillus subtilis", "assay": "Induction of AroA protein expression in Bacillus subtilis 168 at 2.3 uM incubated for 15 mins by 35S-methionine pulse labeling based 2D-PAGE analysis", "assay_type": "functional, organism-based"}, "Bacillus subtilis [20]": {"test_system": "Bacillus subtilis", "assay": "Antibacterial activity against Bacillus subtilis 168 by broth micro dilution method", "assay_type": "functional"}, "Bacillus subtilis [21]": {"test_system": "Bacillus subtilis", "assay": "Induction of GroEL.1 protein expression in Bacillus subtilis 168 at 2.3 uM incubated for 15 mins by 35S-methionine pulse labeling based 2D-PAGE analysis", "assay_type": "functional, organism-based"}, "Staphylococcus aureus [22]": {"test_system": "Staphylococcus aureus", "assay": "Antibacterial activity against methicillin-resistant Staphylococcus aureus ATCC 700699 assessed as delay in growth at 1.56 uM measured for 6 hrs", "assay_type": "functional, organism-based"}, "Bacillus subtilis [23]": {"test_system": "Bacillus subtilis", "assay": "Induction of GroEL.3 protein expression in Bacillus subtilis 168 at 2.3 uM incubated for 15 mins by 35S-methionine pulse labeling based 2D-PAGE analysis", "assay_type": "functional, organism-based"}, "Bacillus subtilis [24]": {"test_system": "Bacillus subtilis", "assay": "Induction of GroEL.2 protein expression in Bacillus subtilis 168 at 2.3 uM incubated for 15 mins by 35S-methionine pulse labeling based 2D-PAGE analysis", "assay_type": "functional, organism-based"}, "Bacillus subtilis [25]": {"test_system": "Bacillus subtilis", "assay": "Induction of DnaK.1 protein expression in Bacillus subtilis 168 at 2.3 uM incubated for 15 mins by 35S-methionine pulse labeling based 2D-PAGE analysis", "assay_type": "functional, organism-based"}, "Enterococcus faecalis [26]": {"test_system": "Enterococcus faecalis", "assay": "Antibacterial activity against vancomycin-resistant Enterococcus faecalis ATCC 51299 by broth micro dilution method", "assay_type": "functional"}, "[27]": {"assay": "Selectivity index, ratio of IC50 for human MRC5 cells to MIC90 for methicillin-resistant Staphylococcus aureus ATCC 700699", "assay_type": "toxicity", "settings": "read-out: Selectivity Index"}, "Staphylococcus aureus [28]": {"test_system": "Staphylococcus aureus", "assay": "Antibacterial activity against methicillin-resistant Staphylococcus aureus ATCC 700699 assessed as delay in growth at 6.25 uM measured for 24 hrs relative to control", "assay_type": "functional"}, "HepG2": {"test_system": "HepG2", "assay": "(§2) Cytotoxicity against human HepG2 cells assessed as reduction in cell viability incubated for 48 hrs by resazurin reagent based assay", "settings": "Homo sapiens, HepG2, 48 h"}, "[29]": {"assay": "as §2", "settings": "human, HepG2 cells"}, "Bacillus subtilis [30]": {"test_system": "Bacillus subtilis", "assay": "Induction of Hag protein expression in Bacillus subtilis 168 at 2.3 uM incubated for 15 mins by 35S-methionine pulse labeling based 2D-PAGE analysis", "assay_type": "functional, organism-based"}, "Bacillus subtilis [31]": {"test_system": "Bacillus subtilis", "assay": "Induction of Hom protein expression in Bacillus subtilis 168 at 2.3 uM incubated for 15 mins by 35S-methionine pulse labeling based 2D-PAGE analysis", "assay_type": "functional, organism-based"}, "Bacillus subtilis [32]": {"test_system": "Bacillus subtilis", "assay": "Induction of LiaH.1 protein expression in Bacillus subtilis 168 at 2.3 uM incubated for 15 mins by 35S-methionine pulse labeling based 2D-PAGE analysis", "assay_type": "functional, organism-based"}, "HEK293": {"test_system": "HEK293", "assay": "(§3) Cytotoxicity against human HEK293 cells assessed as reduction in cell viability incubated for 48 hrs by resazurin reagent based assay", "settings": "Homo sapiens, HEK293, 48 h"}, "[33]": {"assay": "as §3", "settings": "human, HEK293 cells"}, "Bacillus subtilis [34]": {"test_system": "Bacillus subtilis", "assay": "Induction of SodA protein expression in Bacillus subtilis 168 at 2.3 uM incubated for 15 mins by 35S-methionine pulse labeling based 2D-PAGE analysis", "assay_type": "functional, organism-based"}},
  "note": "The source made the active and inactive calls. No cut-off for these calls is given here.",
  "data": [
    {"compound": "CC(C)=CCC/C(C)=C/Cc1c(O)ccc(C(=O)/C=C/c2ccc(O)cc2)c1O", "note": "[XANTHOANGELOL]", "values": [
      {"measurement": "Activity", "setting": "Bacillus subtilis [1]", "value": "Active"},
      {"measurement": "Activity", "setting": "Bacillus subtilis [2]", "value": "Active"},
      {"measurement": "MIC", "setting": "Staphylococcus aureus [3]", "value": 3.12, "unit": "µM"},
      {"measurement": "MIC50", "setting": "Staphylococcus aureus [3]", "value": 0.96, "unit": "µM"},
      {"measurement": "MIC90", "setting": "Staphylococcus aureus [3]", "value": 1.33, "unit": "µM"},
      {"measurement": "IC50", "setting": "THP-1", "value": 23.6, "unit": "µM"},
      {"measurement": "IC90 at 48 h", "setting": "[4]", "value": 39.1, "unit": "µM"},
      {"measurement": "Activity", "setting": "Bacillus subtilis [5]", "value": "Active"},
      {"measurement": "Activity", "setting": "Bacillus subtilis [6]", "value": "Active"},
      {"measurement": "Activity", "setting": "Bacillus subtilis [7]", "value": "Active"},
      {"measurement": "Activity", "setting": "Bacillus subtilis [8]", "value": "Active"},
      {"measurement": "selectivity ratio", "setting": "[9]", "value": 17.7},
      {"measurement": "Activity", "setting": "Bacillus subtilis [10]", "value": "Active"},
      {"measurement": "MIC", "setting": "Staphylococcus aureus [11]", "value": 6.25, "unit": "µM"},
      {"measurement": "Activity", "setting": "Bacillus subtilis [12]", "value": "Active"},
      {"measurement": "Activity", "setting": "Staphylococcus aureus [13]", "value": "Active"},
      {"measurement": "selectivity ratio", "setting": "[14]", "value": 44.2},
      {"measurement": "Activity", "setting": "Bacillus subtilis [15]", "value": "Active"},
      {"measurement": "MIC", "setting": "Enterococcus faecalis [16]", "value": 12.5, "unit": "µM"},
      {"measurement": "Activity", "setting": "Bacillus subtilis [17]", "value": "Active"},
      {"measurement": "Activity", "setting": "Bacillus subtilis [18]", "value": "Active"},
      {"measurement": "Activity", "setting": "Bacillus subtilis [19]", "value": "Active"},
      {"measurement": "MIC", "setting": "Bacillus subtilis [20]", "value": 3.12, "unit": "µM"},
      {"measurement": "Activity", "setting": "Bacillus subtilis [21]", "value": "Active"},
      {"measurement": "Activity", "setting": "Staphylococcus aureus [22]", "value": "Active"},
      {"measurement": "Activity", "setting": "Bacillus subtilis [23]", "value": "Active"},
      {"measurement": "Activity", "setting": "Bacillus subtilis [24]", "value": "Active"},
      {"measurement": "Activity", "setting": "Bacillus subtilis [25]", "value": "Active"},
      {"measurement": "MIC", "setting": "Enterococcus faecalis [26]", "value": 6.25, "unit": "µM"},
      {"measurement": "selectivity ratio", "setting": "[27]", "value": 16.3},
      {"measurement": "Activity", "setting": "Staphylococcus aureus [28]", "value": 100, "unit": "%"},
      {"measurement": "IC50", "setting": "HepG2", "value": 13.7, "unit": "µM"},
      {"measurement": "IC90 at 48 h", "setting": "[29]", "value": 37.4, "unit": "µM"},
      {"measurement": "Activity", "setting": "Bacillus subtilis [30]", "value": "Active"},
      {"measurement": "Activity", "setting": "Bacillus subtilis [31]", "value": "Active"},
      {"measurement": "Activity", "setting": "Bacillus subtilis [32]", "value": "Active"},
      {"measurement": "IC50", "setting": "HEK293", "value": 21.5, "unit": "µM"},
      {"measurement": "IC90 at 48 h", "setting": "[33]", "value": 44.8, "unit": "µM"},
      {"measurement": "Activity", "setting": "Bacillus subtilis [34]", "value": "Active"}
    ]}
  ]
}
